Test results published in PubChem BioAssay AID1241 (SRMLSC, 2008).

assay: compounds inducing NF-kB luciferase expression – cell-based, SH-SY5Y, dose response (AID 1241); settings: SH-SY5Y NF-kB promoter luciferase reporter, fold induction

Row | Compound | EC50 [nM]
1 | Cc1ccc(-n2nnc(-c3cccnc3Cl)n2)cc1 | 4750
2 | COc1ccccc1N1CCN(Cc2ccc(O)c3ncccc23)CC1 | 1160
3 | Cc1sc(NC(=O)c2ccco2)nc1-c1ccccc1 | 2770
4 | COc1cccc(N/C=C/C(=O)c2ccc(Cl)cc2)c1 | 652
5 | CCOC(=O)c1sc2nc3c(cc2c1N)COC(C)(CC)C3 (stereo unspecified) | 1450
6 | CC(=O)Nc1ccc2nc(-c3ccccc3)cn2c1 | 2700
7 | CCc1ccc(-c2cn3c(n2)SCC3)cc1 | 9880
8 | Cc1ccc(-c2nnc(-c3cccs3)o2)cc1 | 2790
9 | Cc1ccc2nc(-c3ccc(NC(=O)COC(=O)c4cncc(Br)c4)cc3)sc2c1 | 393
10 | COc1cccc(-c2noc(-c3ccc4c(c3)OCO4)n2)c1 | 506
11 | CSc1ccc(/C=N/Nc2ccc(Cl)c(C(=O)O)c2)cc1 | 5910
12 | Cc1ccc(C(=O)/C=C/Nc2ccccc2C(N)=O)cc1 | 511
13 | CC(C)c1ccc(-n2cnn(-c3ncccc3[N+](=O)[O-])c2=O)cc1 | 1590
14 | O=C(NCCC1=CCCCC1)c1ccc(Cl)cc1 | 198
15 | CC(=O)Nc1ccc2oc(-c3cc(F)c(F)cc3Cl)nc2c1 | 817
16 | CCOC(=O)c1c(N)sc(C(=O)Nc2ccccc2)c1C | 1930
17 | O=C(Nc1ccccc1)c1ccc2ccccc2n1 | 5810
18 | COc1ccc2nc(Nc3ccccc3)sc2c1 | 11100
19 | CCC(=O)Nc1nc(-c2ccc3c(c2)OCCO3)cs1 | 4540
20 | Cc1ccc(NC(=O)c2ccccn2)c(Br)c1 | 18900
21 | Cc1ccc(-n2c(C)cc(C(=O)CSc3nnnn3C)c2C)cc1 | 1320
22 | C(=N\Nc1nc(-c2ccccc2)cs1)/c1ccco1 | 1700

Row | Compound | EC50 [nM]
23 | Cc1nn(-c2nc3ccccc3s2)c(N)c1-c1ccccc1 | 9750
24 | O=[N+]([O-])c1cc(Cl)ccc1-c1nc(-c2ccccc2)no1 | 3200
25 | CC(=O)c1sc(N/N=C\c2ccccc2O)nc1C | 5530
26 | Cc1ccc2nc(-c3ccc(NC(=O)COC(=O)c4ccc(Br)o4)cc3)sc2c1 | 485
27 | Cc1ccc2nc(NC(=S)NC(=O)c3cccs3)sc2c1 | 2230
28 | CCCc1cc(C(=O)Nc2nccs2)cs1 | 2620
29 | COc1ccc2c(c1)CC/C2=N\OC(=O)c1ccccc1C | 1970
30 | Oc1ccccc1-c1cc(-c2ccccc2)no1 | 1780
31 | COc1ccc2c(c1OC)C(=O)OC2Nc1nc(-c2cc3ccccc3oc2=O)cs1 (stereo unspecified) | 2100
32 | C(=N\NC1=Nc2cccc3cccc1c23)/c1ccccn1 | 7600
33 | COC(=O)c1ccc(-c2ccc(Cl)cc2)nc1C | 4440
34 | CCOc1ccc2nc(N3CCCCCC3)sc2c1 | 3690
35 | Nc1nc(Nc2ccccc2)nc2ccccc12 | 1380
36 | Cc1ccc(NC(=O)N2CCc3ccccc32)cc1 | 763
37 | CN=c1scc(-c2ccccc2F)n1/N=C(\C)c1cccnc1 | 24400
38 | CCOc1ccc(NC(=O)c2ccco2)c([N+](=O)[O-])c1 | 18900
39 | Oc1ccc(-c2cn3cc(C(F)(F)F)ccc3n2)cc1 | 1190
40 | O=C(Nc1nc2c(s1)CCCC2)c1cccs1 | 1080
41 | NC(=O)c1ccccc1N/C=C/C(=O)c1ccc(Cl)cc1 | 5140
42 | COc1ccc(-c2csc(NCc3ccco3)n2)cc1 | 3700
43 | Nc1cccn2c(-c3ccc(Cl)cc3)cnc12 | 3630
44 | O=C(/C=C\Nc1ccccc1Br)c1ccc2c(c1)OCO2 | 96

Row | Compound | EC50 [nM]
45 | O=C(/C=C/c1cccs1)N1CCc2ccccc21 | 356
46 | O=C(CCS(=O)(=O)c1ccccc1)Nc1ccc(-c2nc3ccccc3s2)cc1 | 1140
47 | Cc1ccc(-c2noc(-c3cccs3)n2)cc1 | 2290
48 | CCOc1cccc2cc(-c3csc(NC(=O)CCC(=O)NCCN4CCCCC4C)n3)c(=O)oc12 (stereo unspecified) | 2760
49 | COc1cccc(-c2noc(-c3cccs3)n2)c1 | 2180
50 | CC(C)CC(=O)Nc1ccc2nn(-c3ccccc3)nc2c1 | 5700
51 | COc1cccc([C@@H]2Oc3ccc(OC)cc3C(=O)[C@H]2O)c1 | 5860
52 | Fc1ccccc1SCc1nnc(-c2ccccc2Br)o1 | 818
53 | Cc1ccc(C(=O)Nc2nc3c(s2)CCCC3)o1 | 1780
54 | CCCCCc1ccc(-c2ccc(C(=O)O)cc2)nc1 | 1410
55 | Cc1occc1C(=O)Nc1cccc2ccccc12 | 4620
56 | COC(=O)CSc1nc2cc(OC)ccc2cc1C#N | 295
57 | Cc1ccc(C(=O)c2sc3nsc(C)c3c2N)cc1 | 2000
58 | O=C(/C=C/Nc1ccccc1)c1ccccc1 | < 59
59 | CCOC(=O)c1sc2nc(-c3cccnc3)ccc2c1N | 1350
60 | COC(=O)Cc1ccc2sc(-c3ccccc3)nc2c1 | 702
61 | O=C(c1ccc(Cl)cc1)c1coc2ccc(O)cc12 | 3200
62 | Cc1noc(/C=C/Nc2ccc(F)cc2F)c1[N+](=O)[O-] | 2360
63 | Cc1nc(NC(=O)c2csc3ccccc23)sc1C | 943
64 | c1cn2cc(-c3ccc4c(c3)OCO4)nc2s1 | 1860
65 | COc1ccc(Cn2c(/C=C/c3ccccc3)nc3ccccc32)cc1 | 4870
66 | CCCCCCCOc1ccc(OC(=O)c2ccncc2)cc1 | 107

Row | Compound | EC50 [nM]
67 | O=C(/C=C\Nc1ccc(Br)cc1)c1cccnc1 | 1150
68 | COc1cc(/C=N/O)ccc1OCc1ccc(Cl)cc1 | 882
69 | CC1=NC(=O)C(N=Nc2cccc(C(=O)O)c2)N1c1ccccc1 (stereo unspecified) | 781
70 | N/C(=N\OC(=O)COc1ccc(Cl)cc1Cl)c1ccccn1 | 1190
71 | CCN(CC)c1ccc(NC(=O)c2ccco2)cc1 | 2500
72 | Nc1ccc(-c2nc3cc(N)ccc3s2)cc1 | 1100
73 | O=C(Nc1ccc2c(c1)CCC2)c1cc2ccccc2o1 | 2410
74 | Clc1ccc(-c2nc3n(n2)Cc2ccccc2-3)cc1 | 343
75 | COc1ccc(N=C(C)C2=C(O)c3ccccc3C2=O)cc1 | 889
76 | O=C(Nc1nc2c(s1)CCCC2)c1ccc(Br)o1 | 1290
77 | Cc1cccnc1Nc1nc(-c2ccccn2)cs1 | 160
78 | Cc1c(C(=O)Nc2nc3ccccc3[nH]2)oc2ccccc12 | 1380
79 | c1ccc(CCNc2ncnc3c2cnn3-c2ccccc2)cc1 | 27400
80 | Cc1ccc(-c2nc(Nc3ccccc3)n[nH]2)cc1 | 2290
81 | Clc1cccc(-c2nnc(-c3ccccc3)o2)c1 | 1670
82 | O=C(N=Nc1c(O)[nH]c2ccccc12)c1cccs1 | 1480
83 | O=C(N/N=C/C(Br)=C\c1ccccc1)c1n[nH]c2c1CCC2 | 1090
84 | O=C(Nc1nc2ccc(F)cc2s1)c1cccs1 | 4570
85 | Cc1cccc(NC(=O)c2cnc3sccn3c2=O)c1 | 998
86 | COc1ccc(-c2nc(-c3ccc(Br)cc3)no2)c(OC)c1 | 2560
87 | Cc1ccc(-n2cc3ccc([N+](=O)[O-])cc3n2)cc1 | 1290

More lines, in order of falling EC50, values ahead:

Row | EC50 [nM] | Compound
88 | 29500 | Cn1ccc(C(=O)Nc2ccc(Br)cc2Br)n1
89 | 23400 | C/C(=N\NC(=O)c1ccc(Br)cc1)c1ccccc1
90 | 23200 | N/C(=N\OC(=O)c1cccc(Br)c1)c1ccccc1
91 | 21900 | O=C(N/N=C/c1cccc(F)c1)c1csc2c1CCCC2
92 | 18600 | Cc1cc(C)c2nc(NC(=O)C3CCCO3)sc2c1 (stereo unspecified)
93 | 12200 | O=[N+]([O-])c1ccc(C2Oc3ccccc3C3CC(c4ccccc4)=NN32)s1 (stereo unspecified)
94 | 11000 | COCC(=O)Nc1nnc(-c2ccc(C(C)(C)C)cc2)s1
95 | 11000 | CN1CCN(Cc2cc(COCc3ccccc3)c3cccnc3c2O)CC1
96 | 10900 | COc1cccc(-c2nc3ccccc3s2)c1
97 | 10400 | Cc1ccnc(NC(=O)/C=C/c2ccccc2Cl)c1
98 | 10000 | Cc1cc(N)n2nc(-c3ccccc3)cc2n1
99 | 8600 | O=C(Nc1ccc(N2CCOCC2)c(Cl)c1)c1cccc(F)c1
100 | 8130 | Cc1cccnc1Nc1nc(-c2ccc(O)cc2)cs1
101 | 7220 | COc1cccc(N(C(=O)c2nc3nccc(C)n3n2)c2nc3ccccc3s2)c1
102 | 6840 | Cc1ccc(-c2noc(-c3ccccc3F)n2)cc1
103 | 5840 | Cc1ccsc1/C=C1\CCC(C2CCCC2)C1=O (stereo unspecified)
104 | 5440 | O=C(/C=C/c1c[nH]c2ccccc12)c1ccccc1
105 | 4950 | NC(=O)c1ccccc1N/C=C/C(=O)c1cccs1
106 | 4630 | Cc1ccc(-c2nnc(SCc3ccccc3F)o2)cc1
107 | 3920 | COc1ccc(-c2cc(=O)c3cc(OC)ccc3o2)cc1
108 | 3370 | COc1ccc(-c2cn3cc(C)ccc3n2)cc1OC
109 | 3050 | COc1cc(SC)ccc1C(=O)Nc1ccc(C)cc1
110 | 2860 | CCc1ccc(NC(=O)c2cc(C)on2)cc1
111 | 2660 | CNc1nc(-c2ccc3c(c2)CCN3C(=O)c2ccccc2F)cs1
112 | 2510 | Cc1cccc(NC(=O)/C=C/c2ccc3c(c2)OCO3)n1

Row | EC50 [nM] | Compound
113 | 2360 | Clc1ccc(-c2nnc(-c3ccccc3Cl)o2)cc1
114 | 2320 | C(=N\Nc1nc2ccccc2s1)/c1ccco1
115 | 2040 | Cc1ccc(NC(=O)c2cc3ccccc3o2)cc1S(=O)(=O)N(C)C
116 | 2030 | S=C(Nc1ccccn1)c1ccccn1
117 | 2020 | Cc1c(-c2nc(N)nc(Nc3ccccc3F)n2)oc2ccccc12
118 | 1840 | O=C(Nc1ccc2c(c1)CCC2)c1ccccc1
119 | 1820 | Cc1ccc(Nc2nc(C3CC3)cs2)cc1
120 | 1420 | CC(C)N=C1NN=C(c2ccc(Cl)c(Cl)c2)CS1
121 | 1340 | Cc1ccc(Cc2cnc(NC(=O)c3ccco3)s2)cc1
122 | 1330 | Cc1ccc(/C=C/C(=O)N2CCc3ccccc32)o1
123 | 1230 | O=C(O)c1ccc(/C=N/Nc2ccc(F)cc2F)cc1
124 | 1210 | O=C(/C=C/Nc1ccc(Oc2ccccc2)cc1)c1ccco1
125 | 1120 | Clc1ccc(OCc2nc(-c3ccncc3)no2)c(Cl)c1
126 | 1060 | CCN(CC)c1ccc(C(=O)Nc2cccc(F)c2)cc1
127 | 1010 | C/C(=N\Nc1cccc2cccnc12)c1ccccc1O
128 | 1010 | Nc1nn(-c2ccccc2)c(N)c1N=Nc1ccccc1F
129 | 997 | COC(=O)CSc1nc2cc3c(cc2cc1C#N)OCO3
130 | 803 | Cc1ccsc1/C=N/Nc1nc2ccccc2s1
131 | 761 | Cc1nc(-c2ccc(NC(=O)c3ccccc3)cc2)cs1
132 | 697 | COc1ccc(NC(=O)N2CCc3ccccc32)cc1
133 | 511 | O=C(Nc1ccc2sccc2c1)c1ccc(Cl)s1
134 | 403 | NC(=O)c1ccc(-c2ncc(-c3ccccc3)o2)cc1
135 | 242 | CSc1ccc(/C=C/C(=O)Nc2ccccc2)cc1
136 | 138 | O=C(Nc1nc2ccccc2s1)c1ccc2c(c1)OCO2
